We go through 21 molecules from paper PMC11983575, “Study on the synthesis and biological activity of kojic acid triazol thiosemicarbazide Schiff base derivatives” (Journal of Enzyme Inhibition and Medicinal Chemistry, 2025).

The nature of experiment [1]: DPPH free radical scavenging activity assay. The conditions noted are these: DPPH 150 μM, 30 min, 517 nm; read-out: DPPH/IC50 (μM) ± SD. As for the experimental part:
The anti-oxidation effect on DPPH radical was determined by a slightly modified version of a previously described DPPH radical scavenging assay. Reaction mixtures consisted of 100 μl of DPPH (150 μM), 20 μl of increasing concentration of test compounds and the volume was adjusted to 200 μl in each well with DMSO. The assay solution was then incubated at room temperature (25 °C) for 30 min in the dark. After the incubation, absorbance at 517 nm was measured by using UV-2600 spectrophotometer. The experiments were undertaken in triplicate. DMSO was used as a control. Ascorbic acid was used as antioxidant standard for comparison of the activity. The calculation of DPPH radical scavenging activity was followed by this formula: DPPH radical scavenging activity %=absorbance of standard−absorbance of sample/Absorbance of standard×100
(In general: Loss of DPPH colour is used to gauge radical scavenging.)

Experiment [2] in a line: ABTS radical cation scavenging activity assay. The conditions noted are these: 734 nm; read-out: ABTS+/IC50 (μM) ± SD. As for the experimental part:
ABTS free radical scavenging activity was performed according to the procedure described by Zhang et al.[40] Test solution of ABTS decolourisation assay was prepared by mixing 2.45 mM potassium persulfate and 7 mM ABTS at 8:12 volume/volume ratio. The working solution was kept in the dark at room temperature for 12–18 h. Before ABTS radical scavenging test, the ABTS test solution was diluted with DMSO to absorbance of 0.7 (±0.02) at 734 nm. One millilitre of diluted ABTS test solution was added to 10 μl of DMSO or test sample. After initial mixing, the working solution was kept in the dark at room temperature for 2–6 min, and the absorbance was measured at 734 nm. This test was carried out in triplicate. DMSO was used as a control. Ascorbic acid was used as antioxidant standard for comparison of the activity. The absorbance of test samples was calculated by the following formula. ABTS scavenging ability %=absorbance of standard−absorbance of sample/absorbance of standard×100.

In another experiment the target is mushroom tyrosinase (Agaricus bisporus, UniProt C7FF04). Kind of experiment: In vitro mushroom tyrosinase inhibition (L-DOPA substrate). It counts as biochemical. The conditions noted are these: 475 nm, read-out: IC50 (μM) ± SD, inhibitory tyrosinase activity. The protocol: The mushroom tyrosinase inhibitory activity was determined according to previous described method. Briefly, 168 μl of phosphate buffer (0.1 M, pH 6.8), 10 μl of mushroom tyrosinase (0.5 mg/ml, Sigma Chemical, St. Louis, MO) and 2 μl of the inhibitor solution were placed in the wells of a 96-well micro plate. After pre-incubation for 20 min at 37 °C, 20 μl of 2.0 mg/ml L-DOPA (3,4-dihydroxyphenylalanine, Sigma Chemical, St. Louis, MO) was added and the enzyme activity was measured at 475 nm every 60 s for 180 s in a Microplate Reader (Bio-Rad Laboratories, Inc., Hercules, CA). Kojic acid and phosphate buffer were respectively used as positive and negative control. The extent of inhibition by the test compounds was expressed as the percentage of concentration necessary to achieve 50% inhibition (IC50). The percentage of inhibition was calculated as follows: inhibitory rate (%) = [Ac − At)/Ac] × 100. Ac is the absorbance of the negative control and At is the absorbance of the test compound. Each concentration was analysed in three independent experiments run in triplicate. The IC50 values were determined by the data analysis software GraphPad Prism 8 (La Jolla, CA).
The tyrosinase inhibition measurements of compounds 6a–6x were carried out using L-DOPA as substrate. Kojic acid was selected as a positive control compound. […]. […] Moreover, inhibitory activity of compound with hydroxyl group at papa position is better than the inhibitory activity of compound with hydroxyl group at meta position, and inhibitory activity of compound with hydroxyl group at meta position is better than the inhibitory activity of compound with hydroxyl group at ortho position. […]. […] In addition, with the increase of atomic radius, the inhibitory activity gradually decreases. (3) The inhibitory activity of alkoxy substituted compound is better than that of alkyl substituted compound. (4) Comparing the tyrosinase inhibitory activity of compounds with halogen atom (6b–6d, 6q–6s) and compounds with methyl or methoxy (6e–6f, 6t–6u), when the hydrogen (R^2) was replaced by the methyl (R^2), the inhibitory activity was decreased.

Chain of mushroom tyrosinase (C7FF04 1-392): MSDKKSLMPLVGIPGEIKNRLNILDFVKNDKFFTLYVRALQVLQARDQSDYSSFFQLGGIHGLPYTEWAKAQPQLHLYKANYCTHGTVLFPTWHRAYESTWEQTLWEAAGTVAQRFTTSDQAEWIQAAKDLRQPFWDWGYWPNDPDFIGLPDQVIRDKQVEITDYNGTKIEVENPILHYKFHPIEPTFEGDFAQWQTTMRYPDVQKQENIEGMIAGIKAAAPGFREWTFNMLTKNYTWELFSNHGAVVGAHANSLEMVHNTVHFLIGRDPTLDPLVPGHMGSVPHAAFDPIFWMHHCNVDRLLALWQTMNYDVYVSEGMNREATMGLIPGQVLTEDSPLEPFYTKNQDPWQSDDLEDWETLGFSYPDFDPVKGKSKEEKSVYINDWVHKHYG

“2-(1-(4-((1-((5-Hydroxy-4-oxo-4H-pyran-2-yl)methyl)-1H-1,2,3-triazol-5-yl)methoxy)-3-methylphenyl)ethylidene)hydrazinecarbothioamide [Compound 6x]”: the figures for the IC50 (in experiment [1]; in experiment [2]; at mushroom tyrosinase) were 159.2 ± 0.061 µM, 19.94 ± 0.081 µM and 2.35 ± 0.021 µM, respectively.

With “2-(3-((1-((5-Hydroxy-4-oxo-4H-pyran-2-yl)methyl)-1H-1,2,3-triazol-5-yl)methoxy)benzylidene)hydrazinecarbothioamide [Compound 6l]”, the results for the IC50 (in experiment [1]; in experiment [2]; on mushroom tyrosinase) were 81.67 ± 0.073 µM, 40.23 ± 0.071 µM and 5.45 ± 0.077 µM, respectively.

Take `NC(=S)NN=Cc1ccccc1OCc1cn(Cc2cc(=O)c(O)co2)nn1` [Compound 6a, (2-((1-((5-Hydroxy-4-oxo-4H-pyran-2-yl)methyl)-1H-1,2,3-triazol-4-yl)methoxy)benzylidene)hydrazinecarbothioamide]: the values for the IC50 in experiment [1] and in experiment [2] were 173.2 ± 0.058 µM and 43.89 ± 0.034 µM, respectively.

Take `NC(=S)NN=Cc1ccc(F)cc1OCc1cn(Cc2cc(=O)c(O)co2)nn1` [Compound 6b, 2-(4-Fluoro-2-((1-((5-hydroxy-4-oxo-4H-pyran-2-yl)methyl)-1H-1,2,3-triazol-4-yl)methoxy)benzylidene)hydrazinecarbothioamide]: the IC50 in experiment [1] was 105.4 ± 0.115 µM; in experiment [2] it was 63.1 ± 0.042 µM.

Take `NC(=S)NN=Cc1ccc(Cl)cc1OCc1cn(Cc2cc(=O)c(O)co2)nn1` [Compound 6c, 2-(4-Chloro-2-((1-((5-hydroxy-4-oxo-4H-pyran-2-yl)methyl)-1H-1,2,3-triazol-4-yl)methoxy)benzylidene)hydrazinecarbothioamide]: the IC50 in experiment [1] came out at 104.7 ± 0.088 µM; in experiment [2] it was 72.03 ± 0.084 µM.

In the case of `NC(=S)NN=Cc1ccc(Br)cc1OCc1cn(Cc2cc(=O)c(O)co2)nn1` [Compound 6d, 2-(4-Bromo-2-((1-((5-hydroxy-4-oxo-4H-pyran-2-yl)methyl)-1H-1,2,3-triazol-4-yl)methoxy)benzylidene)hydrazinecarbothioamide], the IC50 in experiment [1] turned out to be 71.43 ± 0.036 µM; in experiment [2], 91.1 ± 0.033 µM.

With `COc1ccc(C=NNC(N)=S)c(OCc2cn(Cc3cc(=O)c(O)co3)nn2)c1` [Compound 6e, 2-(2-((1-((5-Hydroxy-4-oxo-4H-pyran-2-yl)methyl)-1H-1,2,3-triazol-4-yl)methoxy)-4-methoxybenzylidene)hydrazinecarbothioamide], the IC50 turned out to be 87.47 ± 0.144 µM in experiment [1] and 8.24 ± 0.048 µM in experiment [2].

For the molecule `Cc1ccc(C=NNC(N)=S)c(OCc2cn(Cc3cc(=O)c(O)co3)nn2)c1` [Compound 6f, 2-(2-((1-((5-Hydroxy-4-oxo-4H-pyran-2-yl)methyl)-1H-1,2,3-triazol-4-yl)methoxy)-4-methylbenzylidene)hydrazinecarbothioamide], the results for the IC50 in experiment [1] and in experiment [2] were 99.6 ± 0.056 µM and 34.95 ± 0.061 µM, respectively.

`NC(=S)NN=Cc1cc(Cl)ccc1OCc1cn(Cc2cc(=O)c(O)co2)nn1` [Compound 6g, 2-(5-Chloro-2-((1-((5-hydroxy-4-oxo-4H-pyran-2-yl)methyl)-1H-1,2,3-triazol-4-yl)methoxy)benzylidene)hydrazinecarbothioamide]: the results for the IC50 in experiment [1] and in experiment [2] were 133.8 ± 0.048 µM and 52.65 ± 0.109 µM, respectively.

Consider `NC(=S)NN=Cc1cc(Br)ccc1OCc1cn(Cc2cc(=O)c(O)co2)nn1` [Compound 6h, 2-(5-Bromo-2-((1-((5-hydroxy-4-oxo-4H-pyran-2-yl)methyl)-1H-1,2,3-triazol-4-yl)methoxy)benzylidene)hydrazinecarbothioamide], for which the IC50 in experiment [1] amounted to 118.4 ± 0.049 µM; in experiment [2], 68.49 ± 0.091 µM.

Consider `Cc1ccc(OCc2cn(Cc3cc(=O)c(O)co3)nn2)c(C=NNC(N)=S)c1` [Compound 6i, 2-(2-((1-((5-Hydroxy-4-oxo-4H-pyran-2-yl)methyl)-1H-1,2,3-triazol-4-yl)methoxy)-5-methylbenzylidene)hydrazinecarbothioamide], for which the IC50 in experiment [1] was 248.1 ± 0.041 µM; in experiment [2], 61.66 ± 0.091 µM.

For `CCOc1cccc(C=NNC(N)=S)c1OCc1cn(Cc2cc(=O)c(O)co2)nn1` [Compound 6j, 2-(3-Ethoxy-2-((1-((5-hydroxy-4-oxo-4H-pyran-2-yl)methyl)-1H-1,2,3-triazol-4-yl)methoxy)benzylidene)hydrazinecarbothioamide], the values for the IC50 in experiment [1] and in experiment [2] were 25.6 ± 0.031 µM and 6.78 ± 0.082 µM, respectively.

With `CC(C)(C)c1cccc(C=NNC(N)=S)c1OCc1cn(Cc2cc(=O)c(O)co2)nn1` [Compound 6k, 2-(3-(Tert-butyl)-2-((1-((5-hydroxy-4-oxo-4H-pyran-2-yl)methyl)-1H-1,2,3-triazol-4-yl)methoxy)benzylidene)hydrazinecarbothioamide], the results for the IC50 in experiment [1] and in experiment [2] were 49.17 ± 0.077 µM and 9.31 ± 0.022 µM, respectively.

Consider `CC(=NNC(N)=S)c1ccccc1OCc1cn(Cc2cc(=O)c(O)co2)nn1` [Compound 6p, 2-(1-(2-((1-((5-Hydroxy-4-oxo-4H-pyran-2-yl)methyl)-1H-1,2,3-triazol-4-yl)methoxy)phenyl)ethylidene)hydrazinecarbothioamide], for which the IC50 in experiment [1] amounted to 10.53 ± 0.014 µM; in experiment [2] it was 3.19 ± 0.034 µM.

Consider `CC(=NNC(N)=S)c1ccc(F)cc1OCc1cn(Cc2cc(=O)c(O)co2)nn1` [Compound 6q, 2-(1-(4-Fluoro-2-((1-((5-hydroxy-4-oxo-4H-pyran-2-yl)methyl)-1H-1,2,3-triazol-4-yl)methoxy)phenyl)ethylidene)hydrazinecarbothioamide], for which the IC50 in experiment [1] worked out at 47.05 ± 0.042 µM; in experiment [2], 6.61 ± 0.054 µM.

For the molecule `CC(=NNC(N)=S)c1ccc(Cl)cc1OCc1cn(Cc2cc(=O)c(O)co2)nn1` [Compound 6r, 2-(1-(4-Chloro-2-((1-((5-hydroxy-4-oxo-4H-pyran-2-yl)methyl)-1H-1,2,3-triazol-4-yl)methoxy)phenyl)ethylidene)hydrazinecarbothioamide], the IC50 was 53.54 ± 0.088 µM in experiment [1] and 4.49 ± 0.103 µM in experiment [2].

Regarding `CC(=NNC(N)=S)c1ccc(Br)cc1OCc1cn(Cc2cc(=O)c(O)co2)nn1` [Compound 6s, 2-(1-(4-Bromo-2-((1-((5-hydroxy-4-oxo-4H-pyran-2-yl)methyl)-1H-1,2,3-triazol-4-yl)methoxy)phenyl)ethylidene)hydrazinecarbothioamide], the IC50 was determined as 105.8 ± 0.092 µM in experiment [1] and 11.29 ± 0.033 µM in experiment [2].

In the case of `COc1ccc(C(C)=NNC(N)=S)c(OCc2cn(Cc3cc(=O)c(O)co3)nn2)c1` [Compound 6t, 2-(1-(2-((1-((5-Hydroxy-4-oxo-4H-pyran-2-yl)methyl)-1H-1,2,3-triazol-4-yl)methoxy)-4-methoxyphenyl)ethylidene)hydrazinecarbothioamide], the IC50 amounted to 86.3 ± 0.058 µM in experiment [1] and 3.91 ± 0.064 µM in experiment [2].

Turning to `CC(=NNC(N)=S)c1ccc(C)cc1OCc1cn(Cc2cc(=O)c(O)co2)nn1` [Compound 6u, 2-(1-(2-((1-((5-Hydroxy-4-oxo-4H-pyran-2-yl)methyl)-1H-1,2,3-triazol-4-yl)methoxy)-4-methylphenyl)ethylidene)hydrazinecarbothioamide], the values for the IC50 in experiment [1] and in experiment [2] were 55.7 ± 0.154 µM and 5.27 ± 0.078 µM, respectively.

On to `CC(=NNC(N)=S)c1cccc(OCc2cn(Cc3cc(=O)c(O)co3)nn2)c1` [Compound 6v, 2-(1-(3-((1-((5-Hydroxy-4-oxo-4H-pyran-2-yl)methyl)-1H-1,2,3-triazol-4-yl)methoxy)phenyl)ethylidene)hydrazinecarbothioamide], for which the results for the IC50 in experiment [1] and in experiment [2] were 16.27 ± 0.093 µM and 3.2 ± 0.091 µM, respectively.

`O=C1O[C@H]([C@@H](O)CO)C(O)=C1O` [Vitamin C, Ascorbic acid, reference compound]: the IC50 stood at 27.25 ± 0.015 µM in experiment [1] and 55.48 ± 0.04 µM in experiment [2].
